Reference: patent publication US20060148858A1, “1, 2-Azole derivatives with hypoglycemic and hypolipidemic activity” (priority 2002, published 2006)
Read-outs that look alike come from different tables or passages of the source.

Assays:
PPARγ-RXRα heterodimer = biological target: T1, PPARγ-RXRα heterodimer (Homo sapiens, UniProt P37231); experiment: PPARγ-RXRα heterodimer ligand activity, luciferase reporter in PPARγ:RXRα:4ERPP/CHO-K1 cells (Test Example 3); type: cell-based; conditions: 18-48 hours, concentration for 50% of the maximum fold induction
T1 construct: expressed in transfected cells; host or cells: CHO-K1
T1 sequence (P37231 1-477 isoform P37231-2): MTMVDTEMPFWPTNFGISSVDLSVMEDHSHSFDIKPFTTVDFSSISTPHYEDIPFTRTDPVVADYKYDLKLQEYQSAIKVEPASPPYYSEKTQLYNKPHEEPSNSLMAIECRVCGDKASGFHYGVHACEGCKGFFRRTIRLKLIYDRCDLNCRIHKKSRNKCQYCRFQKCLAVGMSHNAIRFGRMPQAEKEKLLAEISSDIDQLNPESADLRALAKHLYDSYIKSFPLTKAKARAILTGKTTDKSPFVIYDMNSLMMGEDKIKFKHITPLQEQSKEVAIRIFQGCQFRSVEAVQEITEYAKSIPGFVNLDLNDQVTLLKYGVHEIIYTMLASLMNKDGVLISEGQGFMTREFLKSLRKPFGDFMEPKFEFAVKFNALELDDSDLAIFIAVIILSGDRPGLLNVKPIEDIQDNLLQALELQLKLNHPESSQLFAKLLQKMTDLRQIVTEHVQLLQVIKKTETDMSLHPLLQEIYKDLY
T1 sequence (P19793 1-462 partner): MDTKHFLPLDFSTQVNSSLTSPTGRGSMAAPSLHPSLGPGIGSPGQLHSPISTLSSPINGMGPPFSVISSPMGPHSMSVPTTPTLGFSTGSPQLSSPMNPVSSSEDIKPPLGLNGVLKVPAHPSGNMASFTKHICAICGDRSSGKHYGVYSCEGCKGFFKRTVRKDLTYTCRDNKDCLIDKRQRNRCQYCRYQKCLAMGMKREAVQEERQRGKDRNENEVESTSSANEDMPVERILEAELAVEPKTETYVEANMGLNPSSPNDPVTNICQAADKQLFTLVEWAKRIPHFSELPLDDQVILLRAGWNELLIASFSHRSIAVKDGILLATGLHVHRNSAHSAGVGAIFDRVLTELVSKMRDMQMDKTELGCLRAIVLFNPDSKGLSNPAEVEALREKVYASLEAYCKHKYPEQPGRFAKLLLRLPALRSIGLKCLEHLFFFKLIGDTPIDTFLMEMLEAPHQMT
Procedure, shortened: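 Stable CHO-K1 line co-expressing hPPARγ/RXR with 4ERPP-TK luciferase reporter, 2×10^4 cells per well, treated 18-48 h at 37° C. in HAM F12 with 0.1% fatty acid-free BSA. Luciferase fold induction versus untreated taken as 1; EC50 is concentration giving 50% of maximal fold induction.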

KKAY mice = experiment: Hypoglycemic and hypolipidemic actions in mice (Test Example 1); type: in vivo; conditions: Mus musculus, po, 96 h, 0.005% in powdery diet, four days, non-treated group taken as 100%
Procedure, shortened: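 KKAY mice (9 to 12 weeks old, 5 per group) were fed diet containing 0.005% test compound ad libitum for four days. Plasma glucose and triglycerides from orbital venous blood were measured enzymatically, reported as % decrease relative to untreated group (100%).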

[1] = rate of decrease in blood glucose level, read-out: Hypoglycemic action (%)
[2] = rate of decrease in blood triglyceride level, read-out: Hypolipidemic action (%)

SMILES | EC50 (PPARγ-RXRα heterodimer) | inhibition in vivo at 0.005 % in diet (KKAY mice; [1]) | inhibition in vivo at 0.005 % in diet (KKAY mice; [2])
CC(C)c1nn(-c2ccc(C(F)(F)F)cn2)cc1CCCOc1cc(CCC(=O)O)n(-c2ccccc2)n1 [Example 24, 3-[3-(3-{3-isopropyl-1-[5-(trifluoromethyl)-2-pyridyl]-1H-pyrazol-4-yl}propoxy)-1-phenyl-1H-pyrazol-5-yl]propionic acid] | 38 nM | – | –
CCOc1nn(-c2ccc(C(F)(F)F)cn2)cc1CCCOc1cccc(CC(=O)O)c1 [Example 30, [3-(3-{3-ethoxy-1-[5-(trifluoromethyl)-2-pyridyl]-1H-pyrazol-4-yl}propoxy)phenyl]acetic acid] | 210 nM | 35% | 58%
CCOc1nn(-c2ccc(C(F)(F)F)cn2)cc1CCCOc1ccccc1CC(=O)O [Example 31, (2-(3-{3-ethoxy-1-[5-(trifluoromethyl)-2-pyridyl]-1H-pyrazol-4-yl}propoxy)phenyl]acetic acid] | 35 nM | 50% | 69%
CCOc1nn(-c2ccc(C(F)(F)F)cn2)cc1CCCOc1cc(CCC(=O)O)n(-c2ccccc2)n1 [Example 42, 3-[3-(3-{3-ethoxy-1-[5-(trifluoromethyl)-2-pyridyl]-1H-pyrazol-4-yl}propoxy)-1-phenyl-1H-pyrazol-5-yl]propionic acid] | 19 nM | 32% | 19%
CCCc1nn(-c2ccc(C(F)(F)F)cn2)cc1CCCOc1cc(CCC(=O)O)n(-c2ccccc2)n1 [Example 43, 3-[1-phenyl-3-(3-{3-propyl-1-[5-(trifluoromethyl)-2-pyridyl]-1H-pyrazol-4-yl}propoxy)-1H-pyrazol-5-yl]propionic acid] | 53 nM | – | –
CCCc1nn(-c2ccc(C(F)(F)F)cn2)cc1CCCCOc1cc(CCC(=O)O)n(-c2ccccc2)n1 [Example 58, 3-[1-phenyl-3-(4-{3-propyl-1-[5-(trifluoromethyl)-2-pyridinyl]-1H-pyrazol-4-yl}butoxy)-1H-pyrazol-5-yl]propanoic acid] | 43 nM | – | –
CCCc1nn(-c2ccc(C(F)(F)F)cn2)cc1CCCOc1ccc(CCC(=O)O)c(OCC)c1 [Example 98, 3-[2-ethoxy-4-(3-{3-propyl-1-[5-(trifluoromethyl)-2-pyridinyl]-1H-pyrazol-4-yl}propoxy)phenyl]propanoic acid] | 110 nM | – | –
CCOc1nn(-c2ccc(C(F)(F)F)cn2)cc1CCCCOc1cc(CCC(=O)O)n(-c2ccccc2)n1 [Example 104, 3-[3-(4-{3-ethoxy-1-[5-(trifluoromethyl)-2-pyridinyl]-1H-pyrazol-4-yl}butoxy)-1-phenyl-1H-pyrazol-5-yl]propanoic acid] | 34 nM | – | –
CCOc1nn(-c2ccc(C(F)(F)F)cn2)cc1CCCOc1ccc(CCC(=O)O)c(OC(C)C)c1 [Example 116, 3-[4-(3-{3-ethoxy-1-[5-(trifluoromethyl)-2-pyridinyl]-1H-pyrazol-4-yl}propoxy)-2-isopropoxyphenyl]propanoic acid] | 82 nM | – | –
O=C(O)CCc1cc(OCCCc2cn(-c3ccc(C(F)(F)F)cn3)nc2-c2ccccc2)nn1-c1ccccc1 [Example 125, 3-[1-phenyl-3-(3-{3-phenyl-1-[5-(trifluoromethyl)-2-pyridyl]-1H-pyrazol-4-yl}propoxy)-1H-pyrazol-5-yl]propionic acid] | 26 nM | – | –
CCOc1nn(-c2ccc(C(F)(F)F)cn2)cc1CCCCOc1ccccc1CC(=O)O [Example 137, [2-(4-{3-ethoxy-1-[5-(trifluoromethyl)-2-pyridyl]-1H-pyrazol-4-yl}butoxy)phenyl]acetic acid] | 35 nM | – | –

Now from value to compound, other results behind:

EC50 (PPARγ-RXRα heterodimer) | SMILES | inhibition in vivo at 0.005 % in diet (KKAY mice; [1]) | inhibition in vivo at 0.005 % in diet (KKAY mice; [2])
75 nM | COc1cccc(CC(=O)O)c1OCCCc1cn(-c2ccc(C(F)(F)F)cn2)nc1C(C)C [Example 181, [2-(3-{3-isopropyl-1-[5-(trifluoromethyl)-2-pyridyl]-1H-pyrazol-4-yl}propoxy)-3-methoxyphenyl]acetic acid] | 49% | 49%
14 nM | O=C(O)CCc1cc(OCCCc2cn(-c3ccc(C(F)(F)F)cn3)nc2C2CCCCC2)nn1-c1ccccc1 [Example 189, 3-[3-(3-{3-cyclohexyl-1-[5-(trifluoromethyl)-2-pyridyl]-1H-pyrazol-4-yl}propoxy)-1-phenyl-1H-pyrazol-5-yl]propionic acid] | 50% | 38%
63 nM | CCOc1ccc(CC(=O)O)cc1OCCCc1cn(-c2ccc(C(F)(F)F)cn2)nc1C1CCCCC1 [Example 201, [3-(3-{3-cyclohexyl-1-[5-(trifluoromethyl)-2-pyridyl]-1H-pyrazol-4-yl}propoxy)-4-ethoxyphenyl]acetic acid] | – | –
13 nM | CCC(CC)c1nn(-c2ccc(C(F)(F)F)cn2)cc1CCCOc1c(CC(=O)O)cccc1OC [Example 212, [2-(3-{3-(1-ethylpropyl)-1-[5-(trifluoromethyl)-2-pyridyl]-1H-pyrazol-4-yl}propoxy)-3-methoxyphenyl]acetic acid] | 52% | 55%
7.8 nM | CCC(CC)c1nn(-c2ccc(C(F)(F)F)cn2)cc1CCCOc1c(C)cccc1CC(=O)O [Example 213, [2-(3-{3-(1-ethylpropyl)-1-[5-(trifluoromethyl)-2-pyridyl]-1H-pyrazol-4-yl}propoxy)-3-methylphenyl]acetic acid] | 51% | 52%
24 nM | CCC(CC)c1nn(-c2ccc(Cl)cn2)cc1CCCOc1c(CC(=O)O)cccc1OC [Example 223, (2-{3-[1-(5-chloro-2-pyridyl)-3-(1-ethylpropyl)-1H-pyrazol-4-yl]propoxy}-3-methoxyphenyl)acetic acid] | 38% | 55%
22 nM | CCc1cccc(CC(=O)O)c1OCCCc1cn(-c2ccc(C(F)(F)F)cn2)nc1C(C)C [Example 227, [3-ethyl-2-(3-{3-isopropyl-1-[5-(trifluoromethyl)-2-pyridinyl]-1H-pyrazol-4-yl}propoxy)phenyl]acetic acid] | 43% | 26%
17 nM | CCCc1nn(-c2ccc(C(F)(F)F)cn2)cc1CCCOc1c(Br)cccc1CC(=O)O [Example 237, [3-bromo-2-(3-{3-propyl-1-[5-(trifluoromethyl)-2-pyridinyl]-1H-pyrazol-4-yl}propoxy)phenyl]acetic acid] | – | –
19 nM | CCc1cccc(CC(=O)O)c1OCCCc1cn(-c2ccc(C(F)(F)F)nn2)nc1C(C)C [Example 245, [3-ethyl-2-(3-{3-isopropyl-1-[6-(trifluoromethyl)pyridazin-3-yl]-1H-pyrazol-4-yl}propoxy)phenyl]acetic acid] | 42% | 55%
40 nM | COc1ccc(CC(=O)O)cc1OCCCc1cn(-c2ccc(C(F)(F)F)cn2)nc1C1CCCCC1 [Example 304, [3-(3-{3-cyclohexyl-1-[5-(trifluoromethyl)-2-pyridinyl]-1H-pyrazol-4-yl}propoxy)-4-methoxyphenyl]acetic acid] | – | –
3.8 nM | Cc1cccc(CC(=O)O)c1OCCCc1cn(-c2ccc(C(F)(F)F)cn2)nc1C1CCCCC1 [Example 316, [2-(3-{3-cyclohexyl-1-[5-(trifluoromethyl)-2-pyridinyl]-1H-pyrazol-4-yl}propoxy)-3-methylphenyl]acetic acid] | – | –
26 nM | CCCc1nn(-c2ccc(C(F)(F)F)cn2)cc1CCCOc1c(C)cccc1CC(=O)O [Example 319, [3-methyl-2-(3-{3-propyl-1-[5-(trifluoromethyl)-2-pyridinyl]-1H-pyrazol-4-yl}propoxy)phenyl]acetic acid] | – | –
41 nM | Cc1cccc(CC(=O)O)c1OCCCc1cn(-c2ccc(C(F)(F)F)nn2)nc1C(C)(C)C [Example 367, [2-(3-{3-tert-butyl-1-[6-(trifluoromethyl)pyridazin-3-yl]-1H-pyrazol-4-yl}propoxy)-3-methylphenyl]acetic acid] | – | –
